According to EP4711361A1, “NITROGEN-CONTAINING HETEROCYCLIC COMPOUND AND USE THEREOF” (Jiangsu Deyuan Pharmaceutical Co.,Ltd., priority 2023, dated 2024):

Legend:
human CYP11B1 = molecular target: T1, human CYP11B1 (Homo sapiens, UniProt P15538); assay: In vitro activity assay of monoclonal cells overexpressing human CYP11B1; type: cell-based; conditions: G402 cells overexpressing human CYP11B1; 1 µM 11-deoxycortisol, 16 hours; cortisol by LC-MS/MS
T1 construct: expressed in transfected cells; host or cells: human renal leiomyoma G402 cells (monoclonal)
T1 sequence (P15538 25-503): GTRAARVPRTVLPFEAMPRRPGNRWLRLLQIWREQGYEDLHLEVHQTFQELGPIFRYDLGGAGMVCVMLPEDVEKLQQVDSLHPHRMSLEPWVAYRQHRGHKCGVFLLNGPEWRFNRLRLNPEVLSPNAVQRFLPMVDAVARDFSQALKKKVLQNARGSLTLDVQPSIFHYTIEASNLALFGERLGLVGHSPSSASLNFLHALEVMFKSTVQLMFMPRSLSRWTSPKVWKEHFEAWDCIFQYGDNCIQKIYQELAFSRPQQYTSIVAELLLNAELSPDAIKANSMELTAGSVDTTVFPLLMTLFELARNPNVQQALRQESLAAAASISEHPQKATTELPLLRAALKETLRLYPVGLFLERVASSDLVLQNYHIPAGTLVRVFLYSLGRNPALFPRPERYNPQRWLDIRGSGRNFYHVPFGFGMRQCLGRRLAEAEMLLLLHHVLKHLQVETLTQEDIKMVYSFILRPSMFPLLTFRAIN
Experimental: The human renal leiomyoma G402 cell line overexpressing human CYP11B1 was selected to serve as a compound selectivity screening system.
Day 1: Cells were digested, and human renal leiomyoma G402 cells overexpressing CYP11B1 were resuspended to 1×10^5 cells/mL, with 100 µL seeded into a 96-well plate.
(§1) Day 3: The cell supernatant was collected and added to 200 µL of a methanol solution containing internal standards (internal standards: 35 ng/mL ketoprofen or 7.5 ng/mL carbamazepine or 5 ng/mL diphenhydramine or 10 ng/mL tolbutamide). The mixture was vortexed and centrifuged (4000×g, 4°C, 5 minutes). Then, 100 µL of the supernatant was taken and mixed with 100 µL of pure water.
Ratio = Cortisol peak area/Internal standard peak area [formula] Control activity% = (Ratiotestcompound/RatioDMSO) × 100% [formula]
(§2) "Ratio test compound" represents the Ratio values at different concentrations of the test compound.
(§3) "Ratio DMSO" represents the Ratio value without the addition of the test compound. • X = Log (compound concentration) • Y = Control activity%
The IC50 of the test compound was determined by fitting to a nonlinear regression equation using XLfit 5.5.0. Table 4: Results for in vitro activity assay of monoclonal cells overexpressing human CYP11B1

human CYP11B2 = molecular target: T2, human CYP11B2 (Homo sapiens, UniProt P19099); assay: In vitro activity assay of monoclonal cells overexpressing human CYP11B2; type: cell-based; conditions: G402 cells overexpressing human CYP11B2; 1 µM 11-deoxycorticosterone, 16 hours; aldosterone by LC-MS/MS
T2 construct: expressed in transfected cells; host or cells: human renal leiomyoma G402 cells (monoclonal)
T2 sequence (P19099 25-503): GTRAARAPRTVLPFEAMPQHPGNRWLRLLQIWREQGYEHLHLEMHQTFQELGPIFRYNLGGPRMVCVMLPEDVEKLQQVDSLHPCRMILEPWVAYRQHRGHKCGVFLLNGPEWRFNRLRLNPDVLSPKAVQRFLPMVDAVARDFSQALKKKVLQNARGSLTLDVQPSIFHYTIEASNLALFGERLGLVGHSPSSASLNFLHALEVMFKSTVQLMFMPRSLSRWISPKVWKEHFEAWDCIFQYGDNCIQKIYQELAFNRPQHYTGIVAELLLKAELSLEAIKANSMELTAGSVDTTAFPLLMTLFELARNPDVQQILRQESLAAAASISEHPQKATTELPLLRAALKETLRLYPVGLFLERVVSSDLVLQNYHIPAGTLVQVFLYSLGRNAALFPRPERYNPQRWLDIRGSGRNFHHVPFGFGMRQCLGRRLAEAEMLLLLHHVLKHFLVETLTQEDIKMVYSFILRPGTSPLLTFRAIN
Experimental: The human renal leiomyoma G402 cell line overexpressing human CYP11B2 was selected to serve as a compound activity screening system. Table 1: Cell and reagent information
2) Compound details: The test compound was prepared as a 10 µM working concentration using DMSO. 3) Experimental procedure
Day 1: Cells were digested, and human renal leiomyoma G402 cells overexpressing human CYP11B2 were resuspended to 1×10^5 cells/mL, with 100 µL seeded into a 96-well plate.
as §1
Ratio = Aldosterone peak area/Internal standard peak area [formula] Control activity% = (Ratiotestcompound/RatioDMSO) × 100% [formula]
as §2, §3
The IC50 of the test compound was determined by fitting to a nonlinear regression equation using XLfit 5.5.0. Table 3: Results for in vitro activity assay of monoclonal cells overexpressing human CYP11B2

in vivo = conditions: cynomolgus monkey, po, 1 mg/kg
in vitro [1] = conditions: cynomolgus monkey, plasma
in vitro [2] = conditions: human, plasma
in vitro [3] = conditions: rat, plasma
in vitro [4] = conditions: human, microsomes
[5] = Permeability test (MDR1-MDCKII monolayer, bidirectional transport); type: in vitro ADME; conditions: dog
Experimental: Experimental objective: The permeability and efflux ratio of the compound of the present disclosure were determined using the MDR1-MDCKII monolayer cell model to assess its membrane permeability and potential for P-gp-mediated efflux transport.
Experimental protocol: MDR1-MDCKII cells (obtained from the Netherlands Cancer Institute) were seeded in 96-well plates (obtained from Corning) at a cell density of 3.33 × 10^5 cells/mL and cultured for 4 to 7 days to form confluent cell monolayers. Hank's balanced salt solution containing 10 mM HEPES (pH 7.40) was used as the transport buffer. The test compound was evaluated for bidirectional transport at a concentration of 2 µM, with the DMSO concentration in the incubation system maintained below 1%. After adding the samples, the cell plate was incubated at 37±1°C, 5% CO2, and saturated humidity for 2.5 hours. All samples were quantitatively analyzed using the LC-MS/MS method. The apparent permeability coefficient (Papp, cm/s) and efflux ratio (ER) were calculated using the following formula. Apparent permeability coefficient (Papp, cm/s) was calculated using the following formula: Papp = (dCr/dt) x Vr / (A x C0). Herein, dCr/dt represents the cumulative concentration of the compound at the receiving end per unit time (µM/s); Vr is the volume of the solution at the receiving end (with solution volumes at the apical and basolateral ends being 0.075 mL and 0.250 mL, respectively); A is the relative surface area of the cell monolayer (0.143 cm^2); C0 is the initial concentration of the test substance at the dosing end (µM) or the peak area ratio of the reference substance. The efflux ratio was calculated using the following formula: ER = Papp (BA)/ Papp (AB). Table 7: Permeability test results of compounds

In the case of `CCC(=O)NC1CCCc2c(-c3cc(F)c4c(ccc(=O)n4C)c3)cncc21` (single isomer, unassigned) [Compound 018], the IC50 (human CYP11B1) is reported as 3.81 µM, the IC50 (human CYP11B2) is reported as 20.7 nM and the AUC(0-t) at 24 h (in vivo) is reported as 7.59 µM·h. For the same compound, the Cmax (in vivo) was 1310 nM, the half-life (in vivo) was 321 min and the fraction unbound at 4 h, 2 µM (in vitro [1]) was 0.205. It also gave a fraction unbound at 4 h, 2 µM (in vitro [2]) of 0.191, a fraction unbound at 4 h, 2 µM (in vitro [3]) of 0.08 and a CLint scaled at 1 µM (in vitro [4]) of less than 8.6 mL/min/kg. It also gave an efflux ratio at 2.5 h, 2 µM ([5]; MDCK-MDR1, pH 7.4, ER = Papp (BA)/ Papp (AB)) of 1.32 and a Papp A→B at 2.5 h, 2 µM ([5]; MDCK-MDR1, pH 7.4, pH 7.40, 2.5 hours, A to B, read-out: Apparent permeability coefficient (Papp (AB), 10^-6 cm/s)) of 24.6 ×10⁻⁶ cm/s.
